Reference: US20260200849A1, “CATIONIC LIPIDS AND PREPARATION METHOD THEREOF” (RiboX Therapeutics HK Limited, priority 2024, published 2026)

Tests used:
[1] = tested on: IL-6; assay: In vivo tolerability by IV: serum IL-6 by Luminex; design: species or system C57BL/6J mice; details: Formulation No. 001, RNA No. 331, male C57BL/6J mice, 1.0 mg*kg/1 intravenous; for IL-6 at 2 h: 2 hours post injection; for IL-6 at 24 h: 24 hours post injection
How it was run: (§1)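 Male C57BL/6J mice aged 6-8 weeks (N=3) received 1.0 mg*kg−1 firefly-luciferase RNA-LNPs intravenously, with PBS as negative control. Serum taken at 2 and 24 h post-injection was assayed for MCP-1 and IL-6 by Luminex.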

[2] = tested on: Hep G2 cells; assay: In vitro expression: luciferase activity in Hep G2 cells transfected with RNA-LNPs; format: cell-based; details: Formulation No. 001, RNA No. 331 (firefly-luciferase), 100 ng/mL RNA-LNPs, 72 hours post transfection
Protocol: 2E5 Hep G2 cells were transfected with 100 ng/mL of RNA-LNPs encoding for firefly-luciferase. At 72 hours post transfection, the cells were washed and lysed. The luciferase expression (2-well repeat) was determined in the cell lysates with the luciferase assay reagent kit (Promega), according to the kit protocol, luciferase activity was measured by a luminometer.

[3] = tested on: Hep G2 cells; assay: In vitro toxicity: Hep G2 cell viability by CellTiter-Glo; format: cell-based; details: Formulation No. 001, RNA No. 331, 1 μg/mL RNA-LNPs, 72 hours post transfection, cell only = 100%
Protocol: 2E5 Hep G2 cells were transfected with 1 μg/mL RNA-LNPs. At 72 hours post transfection, cell viability (2-well repeat) was determined with the CellTiter-Glo® reagent kit, according to the kit protocol, measured by a luminometer. Cell only as control (100%).
The cell viability was calculated according to the following formula: […]

[4] = tested on: MCP-1; assay: In vivo tolerability by IV: serum MCP-1 by Luminex; design: species or system C57BL/6J mice; details: Formulation No. 001, RNA No. 331, male C57BL/6J mice, 1.0 mg*kg/1 intravenous; for MCP-1 at 2 h: 2 hours post injection; for MCP-1 at 24 h: 24 hours post injection
How it was run: as §1

[5] = LNP size and polydispersity index (PDI) by dynamic light scattering (Zetasizer); format: physicochemical; details: for Size (nm): Formulation No. 001 (Ionizable lipid:DSPC:cholesterol:DMG-PEG2000 = 50:10:38.5:1.5, N/P 6), RNA No. 331; for PDI: Formulation No. 001, RNA No. 331
Protocol: (§2) The LNP size and polydispersity index (PDI), determined by dynamic light scattering (DLS), and zeta potential were measured by a Zetasizer machine (Malvern). RNA concentration and encapsulation efficacy (EE %) were analyzed by the Quant-IT Ribogreen kit by calculating the percentage encapsulation at 100%—(RNA-LNPs/RNA-LNPs with Triton X-100).

[6] = tested on: C57BL/6J mice; assay: In vivo expression by IV, 1.0 mg/kg luciferase RNA-LNPs, whole-body and organ IVIS luminescence; details: Formulation No. 001, RNA No. 331; male C57BL/6J mice, 1.0 mg*kg−1 intravenous, 24-hours post injection
How it was run: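 Male C57BL/6J mice, 6-8 weeks old (N=3), received 1.0 mg*kg−1 firefly-luciferase RNA-LNPs IV. At 24 h post-dose, luciferin (15 mg/ml) was given IP, and whole-body, liver, spleen, kidney, small and large intestine luminescence was imaged by IVIS.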

[7] = RNA encapsulation efficacy (EE %) by Quant-IT Ribogreen kit; format: physicochemical; details: LNP, Formulation No. 001, RNA No. 331
Protocol: as §2

[8] = tested on: Balb/c mice; assay: In vivo expression by IV, 0.05 mg/kg luciferase RNA-LNPs, IVIS luminescence; details: Formulation No. 001, RNA No. 331; female Balb/c mice, 0.05 mg*kg−1 intravenous, 24-hours post injection
How it was run: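 Female Balb/c mice (7-8 weeks, N=3) received 0.05 mg*kg−1 firefly-luciferase RNA-LNPs IV. Luciferin (15 mg/ml) was given IP at 24 and 72 h post-dose for IVIS whole-body luminescence. A second run imaged whole body, liver and spleen at 24 h only.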

## CCCCC/C=C\C/C=C\CCCCCCCCOC(=O)NC(COC(=O)NCCN1CCCCCC1)C(=O)OCCCCCCCCCC(=O)OCCCCCCC (stereo not drawn) [Lipid 959]
[1]
  IL-6 at 2 h: 78.7 pg/mL
  IL-6 at 24 h: 1.8 pg/mL
[2]
  In vitro Expression (Mean): 2.95E+05
[3]
  In vitro cell viability (%) (Mean): 96.03%
[4]
  MCP-1 at 2 h: 1760 pg/mL
  MCP-1 at 24 h: 176 pg/mL
[5]
  Size (nm): 91.09 nm
  PDI: 0.13
[6]
  Kidney (p/s): 1.10E+07 p/s
  Large intestine (p/s): 3.10E+07 p/s
  Liver (p/s): 1.10E+09 p/s
  Small intestine (p/s): 1.43E+08 p/s
  Spleen (p/s): 4.52E+08 p/s
  Whole body (p/s): 7.04E+08 p/s
[7]
  EE (%): 95.49%
[8]
  Liver (p/s) (Mean): 1.07E+09 p/s
  Spleen (p/s) (Mean): 2.04E+08 p/s
  Whole body (p/s) (Mean): 3.16E+09 p/s

## CCCCC/C=C\C/C=C\CCCCCCCCOC(=O)NC(COC(=O)NCCNC)C(=O)OCCCCCC(=O)OCC(CCCCCCCC)CCCCCCCCCC (stereo not drawn) [Lipid 907]
[1]
  IL-6 at 2 h: 14 pg/mL
  IL-6 at 24 h: 2.35 pg/mL
[2]
  In vitro Expression (Mean): 2.56E+04
[3]
  In vitro cell viability (%) (Mean): 97.33%
[4]
  MCP-1 at 2 h: 1020 pg/mL
  MCP-1 at 24 h: 81.5 pg/mL
[5]
  Size (nm): 83.82 nm
  PDI: 0.02
[6]
  Kidney (p/s): 5.43E+06 p/s
  Large intestine (p/s): 3.94E+07 p/s
  Liver (p/s): 1.91E+08 p/s
  Small intestine (p/s): 3.03E+08 p/s
  Spleen (p/s): 5.98E+07 p/s
  Whole body (p/s): 8.99E+08 p/s
[7]
  EE (%): 98.30%
[8]
  Liver (p/s) (Mean): 1.46E+08 p/s
  Spleen (p/s) (Mean): 3.43E+07 p/s
  Whole body (p/s) (Mean): 1.18E+09 p/s

## CCCCCCCCC(CCCCCC)C(=O)OCCCCCCCCOC(=O)NC(COC(=O)NCCN1CCCCC1)C(=O)OCCCCCCCCCCC(=O)OCCCCCC (stereo not drawn) [Lipid 928]
[1]
  IL-6 at 2 h: 11.9 pg/mL
  IL-6 at 24 h: 30.5 pg/mL
[2]
  In vitro Expression (Mean): 4.72E+05
[3]
  In vitro cell viability (%) (Mean): 95.03%
[4]
  MCP-1 at 2 h: 574 pg/mL
  MCP-1 at 24 h: 74.9 pg/mL
[5]
  Size (nm): 75.43 nm
  PDI: 0.01
[6]
  Kidney (p/s): 8.93E+06 p/s
  Large intestine (p/s): 2.23E+07 p/s
  Liver (p/s): 2.41E+09 p/s
  Small intestine (p/s): 1.61E+08 p/s
  Spleen (p/s): 3.25E+08 p/s
  Whole body (p/s): 2.17E+09 p/s
[7]
  EE (%): 87.36%
[8]
  Liver (p/s) (Mean): 2.35E+08 p/s
  Spleen (p/s) (Mean): 4.80E+07 p/s
  Whole body (p/s) (Mean): 9.65E+08 p/s

## CCCCC/C=C\C/C=C\CCCCCCCCOC(=O)NC(COC(=O)NCCN1CCCCCC1)C(=O)OCCCCCC(=O)OCCCCCCCCCCC (stereo not drawn) [Lipid 939]
[1]
  IL-6 at 2 h: 4280 pg/mL
  IL-6 at 24 h: 9.43 pg/mL
[2]
  In vitro Expression (Mean): 3.08E+05
[3]
  In vitro cell viability (%) (Mean): 95.74%
[4]
  MCP-1 at 2 h: 2440 pg/mL
  MCP-1 at 24 h: 956 pg/mL
[5]
  Size (nm): 104.00 nm
  PDI: 0.19
[6]
  Kidney (p/s): 1.21E+07 p/s
  Large intestine (p/s): 1.70E+08 p/s
  Liver (p/s): 5.86E+07 p/s
  Small intestine (p/s): 4.96E+08 p/s
  Spleen (p/s): 1.18E+08 p/s
  Whole body (p/s): 3.50E+09 p/s
[7]
  EE (%): 90.23%
[8]
  Liver (p/s) (Mean): 2.92E+08 p/s
  Spleen (p/s) (Mean): 1.74E+08 p/s
  Whole body (p/s) (Mean): 1.17E+09 p/s

## CCCCCCCCC(CCCCCC)C(=O)OCCCCCCCCOC(=O)NC(COC(=O)NCCN1CCCCCC1)C(=O)OCCCCCCCCOC(=O)C(CCCCCC)CCCCCCCC (stereo not drawn) [Lipid 889]
[1]
  IL-6 at 2 h: 7.62 pg/mL
  IL-6 at 24 h: 4.69 pg/mL
[2]
  In vitro Expression (Mean): 2.46E+05
[3]
  In vitro cell viability (%) (Mean): 91.21%
[4]
  MCP-1 at 2 h: 760 pg/mL
  MCP-1 at 24 h: 286 pg/mL
[5]
  Size (nm): 61.64 nm
  PDI: 0.02
[6]
  Kidney (p/s): 3.47E+07 p/s
  Large intestine (p/s): 2.12E+08 p/s
  Liver (p/s): 5.79E+09 p/s
  Small intestine (p/s): 1.04E+09 p/s
  Spleen (p/s): 2.95E+08 p/s
  Whole body (p/s): 3.48E+09 p/s
[7]
  EE (%): 95.41%
[8]
  Liver (p/s) (Mean): 1.70E+08 p/s
  Spleen (p/s) (Mean): 8.56E+07 p/s
  Whole body (p/s) (Mean): 1.04E+09 p/s

## CCCCC/C=C\C/C=C\CCCCCCCCOC(=O)C(COC(=O)NCCN1CCCCCC1)NC(=O)OCCCCCCCCOC(=O)C(CCCCCC)CCCCCCCC (stereo not drawn) [Lipid 919]
[1]
  IL-6 at 2 h: 25.8 pg/mL
  IL-6 at 24 h: 5.07 pg/mL
[2]
  In vitro Expression (Mean): 4.10E+05
[3]
  In vitro cell viability (%) (Mean): 82.59%
[4]
  MCP-1 at 2 h: 1290 pg/mL
  MCP-1 at 24 h: 256 pg/mL
[5]
  Size (nm): 66.17 nm
  PDI: 0.02
[6]
  Kidney (p/s): 1.88E+07 p/s
  Large intestine (p/s): 1.29E+08 p/s
  Liver (p/s): 3.54E+09 p/s
  Small intestine (p/s): 6.16E+08 p/s
  Spleen (p/s): 6.74E+08 p/s
  Whole body (p/s): 6.01E+09 p/s
[7]
  EE (%): 96.20%
[8]
  Liver (p/s) (Mean): 5.47E+08 p/s
  Spleen (p/s) (Mean): 2.28E+08 p/s
  Whole body (p/s) (Mean): 1.86E+09 p/s

## CCCCCCCCC(CCCCCC)C(=O)OCCCCCCCCOC(=O)NC(COC(=O)NCCN1CCCCCC1)C(=O)OCCCCCCCCCCC(=O)OCCCCCC (stereo not drawn) [Lipid 929]
[1]
  IL-6 at 2 h: 14.7 pg/mL
  IL-6 at 24 h: 2.1 pg/mL
[2]
  In vitro Expression (Mean): 2.24E+05
[3]
  In vitro cell viability (%) (Mean): 100.37%
[4]
  MCP-1 at 2 h: 783 pg/mL
  MCP-1 at 24 h: 58.6 pg/mL
[5]
  Size (nm): 67.82 nm
  PDI: 0.01
[6]
  Kidney (p/s): 2.14E+07 p/s
  Large intestine (p/s): 9.97E+07 p/s
  Liver (p/s): 3.67E+09 p/s
  Small intestine (p/s): 3.16E+08 p/s
  Spleen (p/s): 4.12E+08 p/s
  Whole body (p/s): 2.83E+09 p/s
[7]
  EE (%): 95.55%
[8]
  Liver (p/s) (Mean): 2.99E+08 p/s
  Spleen (p/s) (Mean): 5.00E+07 p/s
  Whole body (p/s) (Mean): 1.02E+09 p/s
